{"source": "patent US20250136652A1", "about": "“FUSION PROTEIN FOR TARGETING RECOMBINANT PROTEINS FOR DEGRADATION” (The Regents of the University of California, priority 2022, published 2025)", "molecules": {"B1": {"name": "synZIP STUD (Synthetic Targeter of Ubiquitination and Degradation) (designed binder)", "chain": "SIAATLENDLARLENENARLERDIANLERDLARLEREEAYFGSGSGSGSGSRRRG"}}, "key": {"[1]": {"test_system": "STUD degradation of GFP (ubiquitin proteasome pathway)", "test": "Inhibitor assay: rescue of GFP fluorescence in Jurkat T cells expressing SynZip STUD and GFP target", "assay_type": "cell-based", "settings": "5 hours; for GFP fluorescence rescue relative to DMSO vehicle control: cells express functional STUD and GFP target", "procedure": "FIG. 3: STUD degradation of GFP is mediated by the cullins in UPP. Representative flow cytometry distributions of GFP fluorescence of Jurkat T cells expressing the SynZip STUD described in FIG. 2B treated with one of three drugs or a DMSO vehicle control. Distributions are representative of three independent experiments.\nUsing the 2 plasmid system as described above, we lentivirally transduce Jurkat T cells. 72 hours after removal of lentivirus, we treat these Jurkat T cells and an untransduced control cell line with either 5 μM of the proteasomal inhibitor MG-132, 1 μM of the cullin ring ligase inhibitor MLN4924, 100 nM of the lysosomal inhibitor Bafilomycin A1, or DMSO vehicle control and incubate at 37 C for 5 hours. […] FIG. 3.\nFlow cytometry: All flow cytometry data was obtained using a LSR Fortessa (BD Biosciences). All assays were run in a 96-well round bottom plate (Fisher Scientific #08-772-2C). Samples were prepared by pelleting cells in the plate using centrifugation at 400×g for 4 minutes. Supernatant was then removed and 200 μL of PBS (UCSF Cell Culture facility) was used to wash cells. The cells were again pelleted as described above and supernatant was removed. Cells were resuspended in 120 μL of Flow buffer (PBS+2% FBS) and mixed by pipetting prior to flow cytometry assay.\n(§1) Inhibitor Assays: 100,000 cells were plated in a 96 well round bottom plate with either 5 μM MG-132 (Sigma-Aldrich #M7449-200UL), 1 μM MLN4924 (Active Biochem #A-1139), 100 nM Bafilomycin A1 (Enzo Life Sciences #BML-CM110-0100), or DMSO vehicle control and incubated at 37 C for 5 hours. After incubation, cells were pelleted by centrifugation at 400×g for 4 minutes. Supernatant was then removed and cells were washed once with 200 μL PBS. Cells were pelleted again (400×g for 4 minutes) and resuspended in flow buffer (PBS+2% FBS) for assay by flow cytometry."}, "[2]": {"test_system": "STUD knockdown of anti-CD19 4-1BB CD3zeta CAR", "test": "MLN4924 rescue of STUD knockdown of CD19BBz CAR expression in CD8+ primary T cells", "assay_type": "cell-based, human", "settings": "1 μM MLN4924, 5 hours, 37 C", "procedure": "FIG. 4D. Plasmid in FIG. 4A is transduced into CD8+ primary T cells and anti-CD19 4-1BB CD3zeta CAR expression and activation is assayed. Left: Cullin inhibitor MLN4924 is added to engineered T cells to rescue degradation of CAR by STUD. […] Black bars represent each condition with DMSO vehicle control. Middle: Engineered T cells are cocultured with NALM6 target cells for 72 hours and lysis is measured by flow cytometry. Lysis is calculated relative to lysis of NALM6 cells cultured with UnT T cells. Right: Median fluorescence of T cell activation marker CD25 after coculture is measured by antibody stain for CD25 and flow cytometry.\nEngineered CD8+ T cells expressing were cocultured with NALM6 target cells and measured activation of the CAR by quantifying target cell lysis and expression of the T cell activation marker CD25.\nas §1, with “cytometry. […]” for “cytometry.”"}, "NALM6 target cells": {"test_system": "NALM6 target cells", "test": "MLN4924 dose response: ON switch CAR lysis of NALM6 target cells", "assay_type": "cell-based, human", "settings": "MLN4924 1 μM to 0.015625 μM; 72 hours at 37 C; CD8+ T cells with antiCD19BBz CAR-SynZip and memSTUD", "procedure": "We engineer CD8+ primary human T cells that express an antiCD19BBz CAR fused to a SynZip and a STUD to recognizes the SynZip. As a control, the CD8+ primary human T cells that express the same CAR without the SynZip and the SynZip STUD were also engineered. Both these cell lines were cocultured and an untransduced (UnT) control with NALM6 target cells for 72 hours at 37 C in the presence of various concentrations of MLN4924. Lysis of target cells was calculated by each line relative to NALM6 cells cultured alone by flow cytometry.\nCD8+ primary human T cells were engineered with an antiCD19BBz CAR fused to a SynZip and a memSTUD that binds the SynZip using the same plasmids outlined in FIG. 14A by lentiviral transduction. As a control, we also lentivirally transduce CD8+ primary human T cells with an antiCD19BBz and a SynZip memSTUD which cannot bind the CAR. These engineered cells and an untransduced control were cocultured with NALM6 target cells for 72 hours at 37 C in the presence of MLN4924 ranging from 1 μM to 0.015625 μM and a DMSO vehicle control. After coculture, target cell lysis was assayed by flow cytometry. Specific target cell lysis of each cell line relative to NALM6 cells cultured alone in the same conditions was then calculated.\nCo-culture assays: For all assays, T cells and target cells were co-cultured at a 1:1 ratio with cell numbers varying per assay. […]"}, "[3]": {"target": "GFP fused to a heterodimeric SynZip protein complementary to the binding domain on the STUD", "sequence (chain, as listed by the source)": "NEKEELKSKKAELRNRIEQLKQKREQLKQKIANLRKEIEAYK", "test": "cell-based or functional assay"}}, "note": "Residues, ends and D or L forms follow the SMILES beside them. *: point of attachment. Cbz = O=C(OCc1ccccc1)*"}
{"molecule": "CC(C)C[C@@H](C=O)NC(=O)[C@H](CC(C)C)NC(=O)[C@H](CC(C)C)NC(=O)OCc1ccccc1", "note": "[MG-132] (Cbz-Leu-Leu-Leu-aldehyde)", "values": [{"measurement": "GFP fluorescence rescue relative to DMSO vehicle control", "setting": "[1]; 5 μM MG-132, 37 C", "value": "can indeed be rescued"}]}
{"molecule": "NS(=O)(=O)OC[C@@H]1C[C@@H](n2ccc3c(N[C@H]4CCc5ccccc54)ncnc32)C[C@@H]1O", "note": "[MLN4924]", "values": [{"measurement": "rescue of STUD knockdown of CAR expression", "setting": "[2]", "value": "can rescue STUD knockdown of CAR expression"}, {"measurement": "specific target cell lysis by CAR", "setting": "NALM6 target cells", "value": "dose dependent"}, {"measurement": "GFP fluorescence rescue relative to DMSO vehicle control", "setting": "[1]; 1 μM MLN4924, 37 C", "value": "can indeed be rescued"}]}
{"molecule": "CO/C1=C\\C(C)=C\\[C@@H](C)[C@@H](O)[C@@H](C)C/C(C)=C/C=C/[C@H](OC)[C@@H]([C@@H](C)[C@@H](O)[C@H](C)[C@@]2(O)C[C@@H](O)[C@H](C)[C@@H](C(C)C)O2)OC1=O", "note": "[Bafilomycin A1]", "values": [{"measurement": "GFP fluorescence change relative to DMSO vehicle control", "setting": "[1]; 100 nM Bafilomycin A1, 37 C", "value": "No changes to GFP fluorescence"}]}
{"molecule": "B1", "values": [{"measurement": "fold change of median normalized GFP fluorescence (GFP/tagBFP), flow cytometry, Jurkat T cells", "setting": "[3]", "value": 42, "unit": "fold"}]}
